Test results published in ChEMBL document CHEMBL3132859, “Synthesis and biological evaluation of a post-synthetically modified Trp-based diketopiperazine” (Medchemcomm, 2013).
One block for each molecule: values may come before it. Activity calls are given as the source filed them. The rule behind the calls is not given here.

Tests used:
Assay type in all cases: functional, cell-based
A549 = assay: Antiproliferative activity against human A549 cells after 72 hrs by MTT assay
SK-BR-3 = assay: Antiproliferative activity against human SKBR3 cells after 72 hrs by MTT assay
HT-29 [1] = assay: Antiproliferative activity against human HT-29 cells after 72 hrs by MTT assay
HT-29 [2] = assay: Antiproliferative activity against human HT-29 cells after 24 hrs by MTT assay
HeLa [3] = assay: Antiproliferative activity against human HeLa cells after 72 hrs by MTT assay
CAL-27 = assay: Antiproliferative activity against human CAL27 cells after 72 hrs by MTT assay
MDA-MB-231 = assay: Antiproliferative activity against human MDA-MB-231 cells after 72 hrs by MTT assay
HeLa [4] = assay: Antiproliferative activity against human HeLa cells after 24 hrs by MTT assay

Compound: Cc1ccc(-c2[nH]c3ccccc3c2C[C@@H]2NC(=O)[C@@H]3CCCN3C2=O)cc1
Activity (A549): Active | Activity (SK-BR-3): Active | Activity (HT-29 [1]): Active

Compound: O=C1N[C@@H](Cc2c(-c3cc(C(F)(F)F)cc(C(F)(F)F)c3)[nH]c3ccccc23)C(=O)N2CCC[C@@H]12
Activity (HT-29 [2]): Active

IC50 (HeLa [3]): 52 µM
Compound: O=C1N[C@@H](Cc2c(-c3ccc(Cl)cc3)[nH]c3ccccc23)C(=O)N2CCC[C@@H]12
Activity (A549): Active | Activity (SK-BR-3): Active | Activity (HT-29 [1]): Active

IC50 (HeLa [3]): 26 µM
Compound: O=C1N[C@@H](Cc2c(-c3ccc(C(F)(F)F)cc3)[nH]c3ccccc23)C(=O)N2CCC[C@@H]12
Activity (A549): Active | Activity (CAL-27): Active | Activity (SK-BR-3): Active | Activity (MDA-MB-231): Active | Activity (HT-29 [1]): Active

Compound: O=C1N[C@@H](Cc2c(-c3ccccc3Cl)[nH]c3ccccc23)C(=O)N2CCC[C@@H]12
Activity (HeLa [4]): Active | Activity (HT-29 [2]): Active

Compound: COc1ccc(-c2[nH]c3ccccc3c2C[C@@H]2NC(=O)[C@@H]3CCCN3C2=O)cc1
Activity (A549): Active | Activity (SK-BR-3): Active | Activity (HT-29 [1]): Active

Compound: O=C1N[C@@H](Cc2c[nH]c3ccccc23)C(=O)N2CCC[C@@H]12 [BREVIANAMIDE F]
IC50 (HeLa [3]): > 200 µM

Compound: O=C1N[C@@H](Cc2c(-c3ccccc3C(F)(F)F)[nH]c3ccccc23)C(=O)N2CCC[C@@H]12
Activity (HeLa [4]): Active | Activity (HT-29 [2]): Active

Compound: O=C1N[C@H](Cc2c(-c3ccc(C(F)(F)F)cc3)[nH]c3ccccc23)C(=O)N2CCC[C@H]12
Activity (A549): Active | Activity (CAL-27): Active | Activity (MDA-MB-231): Active

Compound: COc1ccccc1-c1[nH]c2ccccc2c1C[C@@H]1NC(=O)[C@@H]2CCCN2C1=O
Activity (HeLa [4]): Active | Activity (HT-29 [2]): Active

Compound: COC(=O)c1ccc(-c2[nH]c3ccccc3c2C[C@@H]2NC(=O)[C@@H]3CCCN3C2=O)cc1
Activity (A549): Active | Activity (SK-BR-3): Active | Activity (HT-29 [1]): Active
